# Article PMC5607274, “An iterative compound screening contest method for identifying target protein inhibitors using the tyrosine-protein kinase Yes” (Scientific Reports, 2017)
# Biological target: T1, human recombinant Yes [a.a. 2–543 (end)] (Homo sapiens, UniProt P07947)
# T1 construct: human recombinant Yes [a.a; 2–543 (end)]; purchased BPS Bioscience 40488
# Test: ADP-Glo kinase assay, inhibition rates of Yes phosphorylation activity (first and second screening)
# Format: biochemical
# Conditions: first screening; mean of n = 4 wells; 10 μmol L−1 compound
# Summary of the method: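 Hits from a first pass were rescreened after re-dissolution from fresh powder. The first pass reported the mean inhibition rate of quadruplicate wells per compound. Activity was that of recombinant human Yes [a.a. 2–543] kinase, read out with the ADP-Glo ADP-detection method.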
# T1 sequence (P07947 2-543): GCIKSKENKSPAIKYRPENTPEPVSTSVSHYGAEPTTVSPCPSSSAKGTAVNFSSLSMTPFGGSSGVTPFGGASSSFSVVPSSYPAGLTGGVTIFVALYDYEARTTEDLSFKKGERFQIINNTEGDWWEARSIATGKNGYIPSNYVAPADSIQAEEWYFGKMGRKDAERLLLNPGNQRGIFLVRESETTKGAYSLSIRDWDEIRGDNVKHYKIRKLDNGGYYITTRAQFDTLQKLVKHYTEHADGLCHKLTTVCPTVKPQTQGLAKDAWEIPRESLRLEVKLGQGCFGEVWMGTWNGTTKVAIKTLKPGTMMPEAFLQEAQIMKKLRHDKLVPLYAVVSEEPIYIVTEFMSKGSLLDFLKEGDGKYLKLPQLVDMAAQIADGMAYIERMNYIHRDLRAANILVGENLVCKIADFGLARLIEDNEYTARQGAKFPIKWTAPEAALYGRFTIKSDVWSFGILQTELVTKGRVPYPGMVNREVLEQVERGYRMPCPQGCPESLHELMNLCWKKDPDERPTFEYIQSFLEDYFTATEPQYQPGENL
row,First screening IR (inhibition rate) [%],Compound
1,3,CC(C)N(CCNC(=O)CCc1nnc2n(Cc3ccccc3)c(=O)c3ccccc3n12)Cc1ccco1 [Compound Z1169067733]
2,2,Cc1ccc(Cn2c(=O)c3ccccc3n3c(CCC(=O)NCCCN4CCOCC4)nnc23)cc1 [Compound Z1169067737]
3,18,Cc1ccc(Cn2c(=O)c3ccccc3n3c(CCC(=O)NCCCN4CCC(C)CC4)nnc23)cc1 [Compound Z1169067743]
4,4,Cc1ccc(Cn2c(=O)c3ccccc3n3c(CCC(=O)NCCN(Cc4ccco4)C(C)C)nnc23)cc1 [Compound Z1169067782]
5,-10,CC(C)N(CCNC(=O)CCc1nnc2n(Cc3ccc(F)cc3)c(=O)c3ccccc3n12)Cc1ccco1 [Compound Z1169067840]
6,10,Cc1[nH]c(=O)c(C#N)c(C)c1CCc1nc(-c2cc(Br)cs2)no1 [Compound Z1170101191]
7,2,COCC(=O)N1CCCCCC1C1CCN(c2ncc(C(N)=O)cc2Cl)CC1 (stereo not shown) [Compound Z1170427223]
8,7,O=C(C1CC1)N1CCCCCC1C1CCN(Cc2nnc(C3CC3)o2)CC1 (stereo not shown) [Compound Z1170432033]
9,-17,Cc1ncc(C(=O)NC(C)c2cccc(NC(=O)c3ccccc3)c2)[nH]1 (stereo not shown) [Compound Z1171689075]
10,9,Cc1n[nH]c(C)c1C(C)C(=O)NCC(c1cccc(Cl)c1)N1CCCC1 (stereo not shown) [Compound Z1172045589]
11,6,CC(=O)Nc1ccc(Nc2cc(C(C)(C)C)nc3c(-c4ccccc4Cl)c(C)nn23)cc1 [Compound Z1172235206]
12,-13,Cc1ccc(Cn2ncc3c(N4CCN(CCO)CC4)ncnc32)cc1 [Compound Z1172235406]
13,-4,Clc1ccccc1Cn1ncc2c(N3CCOCC3)ncnc21 [Compound Z1172235408]
14,4,Clc1ccccc1Cn1ncc2c(NCCc3ccccc3)ncnc21 [Compound Z1172235413]
15,45,Clc1ccccc1Cn1ncc2c(N3CCCC3)ncnc21 [Compound Z1172235419]
16,62,CCSc1ccc(C(=O)NCCc2nc(-c3ccco3)n[nH]2)cn1 [Compound Z1174718157]
17,6,O=C(Nc1nccs1)C1CCCN(C(=O)c2[nH]ncc2Br)C1 (stereo not shown) [Compound Z1177677805]
18,6,CCc1nn2c(Nc3ccc(C(N)=O)cc3)cc(C)nc2c1-c1ccc(F)cc1 [Compound Z1179617819]
19,6,Cc1[nH]ncc1Nc1ccc2nccnc2n1 [Compound Z1182665660]
20,-1,Cc1ccc2nc3c(c(C(=O)O)c2c1)CCC/C3=C/c1cnn(C(C)C)c1 [Compound Z1184925017]
21,-6,N#Cc1cccc(NC(=O)NCCNC(=O)c2c(F)cccc2F)c1 [Compound Z1189154512]
22,6,O=C(NC(C1CC1)C1CC1)C1CCCN1c1ncnc2sccc12 (stereo not shown) [Compound Z1190394303]
23,39,FC(F)(F)c1ccnc(Nc2ccc(NCc3ccccn3)cc2)n1 [Compound Z1192169075]
24,-11,O=C(Nc1ccc(F)cc1)NC1CCN(c2ncnc3nc[nH]c23)C1 (stereo not shown) [Compound Z1193297141]

row,First screening IR (inhibition rate) [%],Compound
1,-7,CCC(C)CS(=O)(=O)N(C)CC (stereo not shown) [Compound Z1193464552]
2,5,COc1ccc(-n2ccc(C(=O)N3CCCCC3c3cn[nH]c3)n2)cc1 (stereo not shown) [Compound Z1198921141]
3,13,O=C1Cc2cc(Nc3nccc(C(F)(F)F)n3)ccc2N1 [Compound Z1199266078]
4,6,CN(C)C1(CNC(=O)CNC(=O)c2cc(F)cc(F)c2)CCOCC1 [Compound Z1199845522]
5,3,CCc1cc(=O)[nH]c(-c2cccc(NC(=O)C3(N4CCOCC4)CCCC3)c2)n1 [Compound Z1203120735]
6,7,COC1CN(C(=O)c2cn(-c3ccccc3)nc2-c2cccnc2)C1 [Compound Z1203241726]
7,6,NCC1CCCS1(=O)=O (stereo not shown) [Compound Z1203586543]
8,-13,Cc1c[nH]c(=O)n1-c1cccc(NC(=O)C2CC(=O)N(C)C2c2cccnc2)c1 (stereo not shown) [Compound Z1204166998]
9,1,CC1=C(C(=O)N(C)C)C(c2ccc(-c3c(F)cccc3F)o2)NC(=S)N1 (stereo not shown) [Compound Z1211655765]
10,-2,COC1CCC(N(C)c2ncc(C(=O)N3CCOCC3)cc2Cl)CC1 (stereo not shown) [Compound Z1212734184]
11,-13,C[S+]([O-])CCNC(=O)c1ccc(-c2cc(Cl)cc(Cl)c2)s1 (stereo not shown) [Compound Z1220303895]
12,-8,COC(=O)Cn1ncc2c(NCCCc3cccc(F)c3)ncnc21 [Compound Z1220626900]
13,-5,COc1ccccc1NC(=O)C1=C(C)Nc2nc(SCc3ccccc3)nn2C1c1ccncc1 (stereo not shown) [Compound Z1227522997]
14,-2,CC1OC(C)(C)N(C(=O)OC(C)(C)C)C1CNC(=O)c1c(F)cccc1Cl (stereo not shown) [Compound Z1229892973]
15,-12,CC(C)(C)OC(=O)N1CC(NC(=O)c2cc3c(F)cc(Br)cc3[nH]2)C1 [Compound Z1231909655]
16,5,CCN(CC)Cc1ccc(C(=O)N2CCC3(C2)NC(=O)NC3=O)cc1 (stereo not shown) [Compound Z1233805260]
17,-2,CN1CCN(S(=O)(=O)CCS(C)(=O)=O)CC1 [Compound Z1238645651]
18,-7,Cc1ccc(-n2cnc3c2CCNC3)cc1 [Compound Z1250487636]
19,3,CC1(C)CN=C(N2CCN(C(=O)c3ccc(C(N)=O)cc3)CC2)S1 [Compound Z1250701189]
20,-2,CCC1CN(C(=O)OCc2ccccc2)C(CC)CN1C(=O)CCc1cnn(C)c1 (stereo not shown) [Compound Z1251624666]
21,9,Cc1cc(C(=O)Nc2nc3ccccc3n2C2CCCC2)nn1C [Compound Z1251687771]
22,3,COC(=O)c1ccc(F)c(S(=O)(=O)N(C)C2C3CCOC3C2(C)C)c1 (stereo not shown) [Compound Z1252759503]
23,27,CCN(CCNC(=O)CCN1CCN(c2ccccn2)CC1)c1ccccc1C [Compound Z1255568722]
24,-8,CCc1cc(CNC(=O)NCc2ccc3cc(OC)ccc3c2)on1 [Compound Z1256754058]

row,First screening IR (inhibition rate) [%],Compound
1,70,CC(C)(C)Cc1cc(NC(=O)c2cnn(-c3ccccc3Cl)c2)n[nH]1 [Compound Z1262045135]
2,-2,CC(C)CCc1nc(CN2C(=O)NC3(CCN(C(=O)OC(C)(C)C)CC3)C2=O)cs1 [Compound Z1262256786]
3,-9,CCCCCNS(=O)(=O)CCS(C)(=O)=O [Compound Z1262455598]
4,52,CS1(=O)=NC=C(C(=O)O)C=C1 (stereo not shown) [Compound Z1262519784]
5,44,Cc1ccn2c(/C=C/C(=O)c3cccc(N4CCOC4=O)c3)cnc2c1 [Compound Z1263913876]
6,-5,CN(C(=O)c1cccc(NC(=O)c2ccc(Br)o2)c1)c1ccc(C#N)cc1 [Compound Z1269414490]
7,45,CC1CC2CCCCC2N1c1ncnc2c1nnn2-c1ccccc1 (stereo not shown) [Compound Z1270084447]
8,43,Fc1ccc(-c2cc(-c3ccc(Cl)cc3)c3ccccc3n2)cc1 [Compound Z1270166647]
9,54,Cc1cc(S(=O)(=O)Nc2cc(-c3ccncc3)nn2C)ccc1Br [Compound Z1270579889]
10,8,CC1CCCC(C)N(S(=O)(=O)CCCS(C)(=O)=O)C1 (stereo not shown) [Compound Z1271251540]
11,-3,CC1(C)CCCN(S(=O)(=O)CCCS(C)(=O)=O)CC1 [Compound Z1271277951]
12,7,COCCCCCn1ncc2ccc([N+](=O)[O-])cc21 [Compound Z1271542350]
13,-18,CS(=O)(=O)C1CSCCN1S(=O)(=O)c1ccc(Br)cc1Cl (stereo not shown) [Compound Z1274438175]
14,5,CC(C)(C)n1cc(C(=O)NCc2ccc(-c3cccnc3)cc2)cn1 [Compound Z1276379731]
15,-4,Cc1cccc(-c2nc(NC(=O)C3Cc4cc(F)ccc4O3)n[nH]2)n1 (stereo not shown) [Compound Z1279679753]
16,21,O=C(c1cc(Cc2ccccc2)ccc1O)N1CCN(Cc2ccon2)CC1 [Compound Z1285074692]
17,-13,O=C(NS(=O)(=O)Cc1ccc(Cl)nc1)C1CCc2cn[nH]c2C1 (stereo not shown) [Compound Z1291253354]
18,1,COC(=O)c1cc(S(=O)(=O)Oc2ccc3c(C(C)C)cc(=O)oc3c2)cn1C [Compound Z1309300961]
19,-11,Fc1ccc(-c2n[nH]c(CNc3cncc(Cl)n3)n2)cc1 [Compound Z1309541011]
20,16,CN1CCC(=O)Nc2cc(C(=O)N(C)C3CCCN(c4ccccc4)C3=O)ccc21 (stereo not shown) [Compound Z1315092412]
21,42,CC(C)(C)c1nccc(Nc2cn[nH]c2)n1 [Compound Z1317605702]
22,-2,Cc1ccc(C(=O)Nc2ccc(OCc3ccccn3)c(F)c2)cn1 [Compound Z1318975474]
23,9,Cc1nc(N(C)C(C)c2ccc([S+](C)[O-])cc2)c2cnn(C)c2n1 (stereo not shown) [Compound Z1324037636]

# Same assay, conditions: second screening, dissolved from fresh powder; n = 4; 10 μmol L−1 compound
row,Second screening IR (inhibition rate) [%],Compound
1,21,CC(C)(C)Cc1cc(NC(=O)c2cnn(-c3ccccc3Cl)c2)n[nH]1 [Compound Z1262045135]
2,7,CC(C)(C)c1nccc(Nc2cn[nH]c2)n1 [Compound Z1317605702]
